In PMC9503898, “Synthesis and Evaluation of Two Long-Acting SSTR2 Antagonists for Radionuclide Therapy of Neuroendocrine Tumors” (Pharmaceuticals, 2022):
Positions of bridges follow the written chain, without caps; N, C: chain ends. Non-standard residues stand in square brackets, D forms with d. Residues, ends and D or L forms follow the SMILES beside them. *: point of attachment. DOTA = O=C(O)CN1CCN(CC(=O)O)CCN(CC(=O)*)CCN(CC(=O)O)CC1; dPhe(4-NHCONH2) = NC(=O)Nc1ccc(C[C@@H](N)C(=O)O)cc1; Butanoyl(4-(4-I-phenyl)) = O=C(CCCc1ccc(I)cc1)*; Dihydroorotyl(S) = O=C1C[C@@H](C(=O)*)NC(=O)N1; Phe(4-Cl) = N[C@@H](Cc1ccc(Cl)cc1)C(=O)O; Phe(4-NH2) = Nc1ccc(C[C@H](N)C(=O)O)cc1

Legend:
[1] = Determination of lipophilicity (LogD7.4, shake-flask); type: physicochemical; conditions: n-octanol/PBS (1:1), pH 7.4, PBS/n-octanol 1:1 (1 mL), ~1.5 MBq, gamma counter, n = 3 (triplicate), mean ± SEM, read-out: Log D7.4
Protocol: The distribution coefficient (LogD7.4) of the ^177Lu-labeled peptides was determined by the shake-flask method. For each radioligand, the experiment was performed in triplicate. The radiolabeled compound (~1.5 MBq) was added to a solution of phosphate buffered saline (PBS)/n-octanol (1 mL, v:v = 1:1) in eppendorf vials. The vials were vortexed vigorously and centrifuged at 10,000 rpm for 3 min. The n-octanol phase was separated from the aqueous phase, poured into new vials, and centrifuged for 15 min. Samples from each phase (10 μL) were measured using a gamma counter. The LogD7.4 value was calculated using the following equation: […].

Stability in PBS = type: physicochemical; conditions: % intact radiolabeled ligand, ~3 MBq in PBS (300 μL), 37 °C, radio-HPLC, n = 1
Protocol: (§1) The ^177Lu-labeled compounds (~3 MBq) were incubated in PBS (300 μL) at 37 °C. The stability of the radiolabeled peptides was verified by radio-HPLC at 1, 4, and 24 h. The stability in serum was determined by incubating the radiolabeled compounds (~3 MBq) into 150 μL of mouse serum (Merck; Haarlerbergweg, The Netherlands) at 37 °C. At 1, 4, and 24 h post-incubation, the proteins were precipitated by adding an aliquot of 35 μL of the mixture to an equal volume of ACN. The vial was vortexed and centrifuged for 20 min. stability was monitored by radio-HPLC (Figures S4 and S5).

Stability in mouse serum = type: in vitro ADME; conditions: % intact radiolabeled ligand, ~3 MBq in 150 μL mouse serum, 37 °C, ACN protein precipitation, radio-HPLC, n = 1
Protocol: as §1

Ex vivo biodistribution = conditions: mouse, iv, 0.5 nmol, total radioactivity
human albumin = human albumin (Homo sapiens, UniProt P02768); experiment: Albumin binding properties (ultrafiltration); conditions: ~1 MBq in human albumin/PBS (500 µL, v:v = 1:4), 1 h, 37 °C; Centrifree ultrafiltration 30 KDa; gamma counter; n = 3, mean ± SEM
Chain of human albumin (P02768 25-609): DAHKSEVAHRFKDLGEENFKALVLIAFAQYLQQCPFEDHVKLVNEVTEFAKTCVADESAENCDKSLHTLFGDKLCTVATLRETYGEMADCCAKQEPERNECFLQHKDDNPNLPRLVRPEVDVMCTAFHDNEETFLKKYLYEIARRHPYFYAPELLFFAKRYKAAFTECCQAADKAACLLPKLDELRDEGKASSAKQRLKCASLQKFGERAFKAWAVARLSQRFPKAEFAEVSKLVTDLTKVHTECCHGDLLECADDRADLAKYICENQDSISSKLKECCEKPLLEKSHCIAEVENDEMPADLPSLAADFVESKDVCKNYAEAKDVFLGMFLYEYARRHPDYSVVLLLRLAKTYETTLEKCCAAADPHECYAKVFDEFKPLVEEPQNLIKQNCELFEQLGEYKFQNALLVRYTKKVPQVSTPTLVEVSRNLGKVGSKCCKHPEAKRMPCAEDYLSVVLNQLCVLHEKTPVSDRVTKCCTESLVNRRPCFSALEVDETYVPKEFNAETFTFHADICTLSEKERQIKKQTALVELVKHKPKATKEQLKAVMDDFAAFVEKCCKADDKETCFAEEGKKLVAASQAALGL

In vivo SPECT/CT imaging = conditions: mouse, H69 xenograft tumor, iv, 20 MBq/0.5 nmol per animal, total radioactivity
[2] = system: mice bearing SSTR2-positive H69 xenografts; experiment: In vivo SPECT/CT imaging; conditions: H69 xenograft mice, i.v. 20 MBq/0.5 nmol, n = 4

logD [1]: -1.6 ± 0.03
Stability in PBS (%) 1 h (Stability in PBS; 1 h): 96.5%
Stability in PBS (%) 4 h (Stability in PBS; 4 h): 96.5%
Stability in PBS (%) 24 h (Stability in PBS; 24 h): 97.2%
remaining at 1 h (Stability in mouse serum; 1 h): 97.3%
remaining at 4 h (Stability in mouse serum; 4 h): 98.4%
remaining at 24 h (Stability in mouse serum; 24 h): 98.5%
tissue uptake at 4 h (Ex vivo biodistribution; blood): 21.3 ± 1.1 %ID/g
tissue uptake at 24 h (Ex vivo biodistribution; blood): 18.1 ± 4.2 %ID/g
tissue uptake at 48 h (Ex vivo biodistribution; blood): 12.9 ± 1.2 %ID/g
tissue uptake at 72 h (Ex vivo biodistribution; blood): 8.6 ± 0.5 %ID/g
tissue uptake at 4 h (Ex vivo biodistribution; bone marrow): 1.2 ± 2 %ID/g
tissue uptake at 4 h (Ex vivo biodistribution; bone): 1.3 ± 1.8 %ID/g
tissue uptake at 24 h (Ex vivo biodistribution; bone): 1.5 ± 1.1 %ID/g
tissue uptake at 48 h (Ex vivo biodistribution; bone): 0.9 ± 0.4 %ID/g
tissue uptake at 72 h (Ex vivo biodistribution; bone): 1.2 ± 1 %ID/g
tissue uptake at 4 h (Ex vivo biodistribution; heart): 7.6 ± 1.2 %ID/g
tissue uptake at 24 h (Ex vivo biodistribution; heart): 5.1 ± 0.7 %ID/g
tissue uptake at 48 h (Ex vivo biodistribution; heart): 4.8 ± 0.5 %ID/g
tissue uptake at 72 h (Ex vivo biodistribution; heart): 3.9 ± 0.7 %ID/g
tissue uptake at 4 h (Ex vivo biodistribution; intestine): 2.5 ± 0.2 %ID/g
tissue uptake at 24 h (Ex vivo biodistribution; intestine): 1.7 ± 0.1 %ID/g
tissue uptake at 48 h (Ex vivo biodistribution; intestine): 1.4 ± 0.1 %ID/g
tissue uptake at 72 h (Ex vivo biodistribution; intestine): 1.1 %ID/g
tissue uptake at 4 h (Ex vivo biodistribution; kidney): 9.6 ± 1.2 %ID/g
tissue uptake at 24 h (Ex vivo biodistribution; kidney): 18.4 ± 1.9 %ID/g
tissue uptake at 48 h (Ex vivo biodistribution; kidney): 22.6 ± 1.9 %ID/g
tissue uptake at 72 h (Ex vivo biodistribution; kidney): 21.6 ± 1.4 %ID/g
tissue uptake at 4 h (Ex vivo biodistribution; liver): 4.6 ± 1.2 %ID/g
tissue uptake at 24 h (Ex vivo biodistribution; liver): 3.7 ± 0.2 %ID/g
tissue uptake at 48 h (Ex vivo biodistribution; liver): 3.6 ± 0.2 %ID/g
tissue uptake at 72 h (Ex vivo biodistribution; liver): 2.9 ± 0.3 %ID/g
tissue uptake at 4 h (Ex vivo biodistribution; lung): 9.9 ± 2.9 %ID/g
tissue uptake at 24 h (Ex vivo biodistribution; lung): 7.5 ± 0.6 %ID/g
tissue uptake at 48 h (Ex vivo biodistribution; lung): 7.2 ± 0.3 %ID/g
tissue uptake at 72 h (Ex vivo biodistribution; lung): 6 ± 0.5 %ID/g
tissue uptake at 4 h (Ex vivo biodistribution; muscle): 0.8 ± 1.1 %ID/g
tissue uptake at 24 h (Ex vivo biodistribution; muscle): 1.1 ± 0.1 %ID/g
tissue uptake at 48 h (Ex vivo biodistribution; muscle): 1.2 ± 0.5 %ID/g
tissue uptake at 72 h (Ex vivo biodistribution; muscle): 0.8 ± 0.1 %ID/g
tissue uptake at 4 h (Ex vivo biodistribution; pancreas): 7.2 ± 0.3 %ID/g
tissue uptake at 24 h (Ex vivo biodistribution; pancreas): 6.6 ± 0.3 %ID/g
tissue uptake at 48 h (Ex vivo biodistribution; pancreas): 6.3 ± 0.7 %ID/g
tissue uptake at 72 h (Ex vivo biodistribution; pancreas): 5.3 ± 1.2 %ID/g
tissue uptake at 4 h (Ex vivo biodistribution; skin): 5.9 ± 1.1 %ID/g
tissue uptake at 24 h (Ex vivo biodistribution; skin): 5.4 ± 0.9 %ID/g
tissue uptake at 48 h (Ex vivo biodistribution; skin): 6.3 ± 1.6 %ID/g
tissue uptake at 72 h (Ex vivo biodistribution; skin): 4.8 ± 0.3 %ID/g
tissue uptake at 4 h (Ex vivo biodistribution; spleen): 3.2 ± 0.7 %ID/g
tissue uptake at 24 h (Ex vivo biodistribution; spleen): 3.8 ± 0.4 %ID/g
tissue uptake at 48 h (Ex vivo biodistribution; spleen): 5.8 ± 0.6 %ID/g
tissue uptake at 72 h (Ex vivo biodistribution; spleen): 5.4 ± 0.2 %ID/g
tissue uptake at 4 h (Ex vivo biodistribution; stomach): 3.8 ± 0.4 %ID/g
tissue uptake at 24 h (Ex vivo biodistribution; stomach): 3.1 ± 1.4 %ID/g
tissue uptake at 48 h (Ex vivo biodistribution; stomach): 3.3 ± 1.2 %ID/g
tissue uptake at 72 h (Ex vivo biodistribution; stomach): 3 ± 0.5 %ID/g
tissue uptake at 4 h (Ex vivo biodistribution; tumor): 4.1 ± 0.5 %ID/g
tissue uptake at 24 h (Ex vivo biodistribution; tumor): 6.5 ± 0.2 %ID/g
tissue uptake at 48 h (Ex vivo biodistribution; tumor): 7.3 ± 0.4 %ID/g
tissue uptake at 72 h (Ex vivo biodistribution; tumor): 7.3 ± 0.9 %ID/g
Protein-Bound Fraction (%) (human albumin): 89.5 ± 0.8%
tissue uptake per volume at 4 h (In vivo SPECT/CT imaging): 3.7 ± 0.9 %ID/mL
tissue uptake per volume at 24 h (In vivo SPECT/CT imaging): 4.9 ± 0.5 %ID/mL
tissue uptake per volume at 48 h (In vivo SPECT/CT imaging): 5.7 ± 0.6 %ID/mL
tissue uptake per volume at 72 h (In vivo SPECT/CT imaging): 4.9 ± 0.3 %ID/mL
SPECT quantification, kidneys (K), 4 h ([2]; 4 h post-injection): 7.7 ± 0.9 % ID/mL
SPECT quantification, kidneys (K), 24 h ([2]; 24 h post-injection): 10.1 ± 0.8 % ID/mL
SPECT quantification, kidneys (K), 48 h ([2]; 48 h post-injection): 10.1 ± 0.3 % ID/mL
SPECT quantification, kidneys (K), 72 h ([2]; 72 h post-injection): 8.9 ± 0.2 % ID/mL
Compound: C[C@@H](O)[C@@H]1NC(=O)[C@H](CCCCN)NC(=O)[C@@H](Cc2ccc(NC(N)=O)cc2)NC(=O)[C@H](Cc2ccc(NC(=O)[C@@H]3CC(=O)NC(=O)N3)cc2)NC(=O)[C@H](NC(=O)[C@H](Cc2ccc(Cl)cc2)NC(=O)[C@H](CCCCNC(=O)CCCc2ccc(I)cc2)NC(=O)CN2CCN(CC(=O)O)CCN(CC(=O)O)CCN(CC(=O)O)CC2)CSSC[C@@H](C(=O)N[C@H](Cc2ccc(O)cc2)C(N)=O)NC1=O [[^177Lu]Lu-8a, metal not drawn] ({DOTA}-K(Butanoyl(4-(4-I-phenyl)))[Phe(4-Cl)][dC][Phe(4-NH2)](Dihydroorotyl(S))[dPhe(4-NHCONH2)]KTC[dY]-NH2; disulfide 3-8)
